Laboratory results reported in patent US20100022637A1, “IDENTIFICATION OF ANTI-CANCER COMPOUNDS AND COMPOUNDS FOR TREATING HUNTINGTON'S DISEASE AND METHODS OF TREATMENT THEREOF” (THE TRUSTEES OF COLUMBIA UNIVERSITY IN THE CITY OF NEW YORK, priority 2005, published 2010).
In brackets after ≈: the same amount, converted by molar mass.

Tests used:
RKO-E6 cells = test: Alamar Blue viability assay, RKO-E6; type: cell-based, human; settings: for effect on doxorubicin's lethality in RKO-E6 cells: co-treatment with 0.5 μg/ml doxorubicin
Procedure: RKO colon carcinoma, human (ATCC, order # CRL-2577), RKO-E6 colon carcinoma transfected with HPV E6 inserted in pCMV.3 (ATCC, order # CRL-2578) were grown in MEM with 2 mM L-glutamine and Earle's BBS adjusted to contain 1.5 g/L NaHCO3, 0.1 mM non-essential amino acids and 1.0 mM sodium pyruvate, and supplemented with 10% fetal bovine serum, penicillin and streptomycin (pen/strep). Both cell lines were incubated at 37° C. in a humidified incubator containing 5% CO2.
The Alamar Blue assay incorporates a fluorimetric/colorimetric growth indicator that changes color in the response to chemical reduction by viable cells (Nociari 1998). Cells were seeded at a density of 3,000 cells (57 μl) per well in a 384-well black, clear-bottom plates using a syringe bulk dispenser (Zymark Sciclone ALH). Three microliters were removed from a compound daughter plate using a 384 fixed cannula head and added to the assay plate, making the final concentration 4 μg/ml. The plates were incubated for 24 h at 37° C. 10 μl of 40% Alamar Blue (Biosource Int., cat #DAL1100) solution in media was added to each well (1:10 dilution). The assay plates were incubated for 16h. Fluorescence intensity was determined using a Packard Fusion platereader with a 535 nm excitation filter and a 590 nm emission filter. The average fluorescence for the whole plate was used as a positive control. Average percentage inhibition for each well was determined using our freely available SLIMS software (Kelley et al., 2004).
The daughter plates for the 2-fold dilution series were prepared with a Zymark Sciclone ALH by diluting the replica daughter plates to obtain compound concentrations from 8 μg/ml-0.008 μg/ml (columns 8-18). Columns 1-7 were used as untreated control. RKO-E6 cells were seeded at the density of 3,000 per well in 55 μl, and 5 μl were added from the daughter plate. RKO cells were seeded at the density of 2,000 per well in 55 μl, and 5 μl were added from the daughter plate. The assay was incubated for 24 h at 37° C. 10% Alamar Blue was added to each well and the assay was incubated for 16 h (see above). Compounds for retesting were purchased from the manufacturers or from Sigma-Aldrich (see above). Stocks were prepared in DMSO at 4 mg/ml.
Each cell line (RKO, RKO-E6, HeLa and TC32) was treated with a dose combination matrix of doxorubicin and a selected hit compound. Each treatment was done in a triplicate in 384-well format. The average percent inhibition of cell proliferation, measured with Alamar Blue, was determined using the following formula: […]

[1] = Rescue and toxicity of Compound 164 and analogs (Table 4); settings: for TC50: Table 4, toxicity; for Max % Toxicity / Max % Rescue: Table 4, cell model not stated
p53 = test: Western blot of p53 (p21, MDM2) levels; type: cell-based, human; settings: RKO-E6 cells; in words
Procedure: Protein content was quantified using a BioRad protein assay reagent (BioRad, cat #500-0006). Equal amounts of protein were resolved on SDS-polyacrylamide gels. Proteins were transferred onto a PVDF membrane, blocked with 5% milk, and incubated with the appropriate primary and secondary antibodies. […] To test for equivalent loading in each lane, blots were stripped, blocked and probed with an anti-eIF-4E antibody.

[2] = test system: PC12 expressing Q103 exon 1 htt; test: PC12 HD model, Alamar Blue viability; type: cell-based; settings: for EC50: Rattus norvegicus, PC-12, unit inferred; for PC12 rescue: percent increase in viability in compound treated cells above DMSO treated: — = no activity in the assay (footnote n.a.)
Procedure: For enhanced stability the repeat portion consists of alternating CAG/CAA repeats. […] Mutant (mut) htt was induced by the ecdysone receptor agonist, tebufenozide.
For the PC12 assay, 7500 cells/well were plated in 384-well plates in 57 μl of PC12 medium with tebufenozide (1 μM). Compounds (3 μl) from daughter plates were added to the cells and incubated at 37° C. After 48 h, 20 μl of 40% Alamar Blue (Biosource, CA) in PC12 media was added per well and cells incubated for 12 h at 37° C. […] Fluorescence intensity was determined using a Packard Fusion plate reader with an excitation filter centered on 535 nm and an emission filter centered on 590 nm. Average percentage inhibition at each concentration was calculated.

N548 mutant cells = test: cells; settings: Rattus norvegicus; for maximal fold induction: 72 h, read-out: N548 Mut: Max, maximum rescue expressed as fold over DMSO treated N548 mutant cells; for EC50: read-out: EC50 based on activity in N548 mutant cells
Procedure: Embryonic rat striatal neurons were conditionally immortalized by stably transfecting a temperature-sensitive SV40 large T-antigen (T-ag) to generate the ST14A cell line. ST14A cells proliferate at the permissive temperature (33° C.), but stop dividing at 39° C., as a result of T-ag degradation. […] As htt protein context modulates polyQ toxicity, testing these different length htt proteins could provide insight into the basis for context dependence.
ST14A Assay System: Calcein acetoxylmethyl ester (AM) (Molecular Probes, Eugene, Oreg.) is a non-fluorescent, membrane-permeable compound that is cleaved by intracellular esterases, which subsequently forms the anionic, fluorescent compound, calcein, that cannot permeate the cell membrane. […] A fluorescence viability assay, that is based on conversion of a non-fluorescent substrate (calcein AM) to a fluorescent product by nonspecific esterases in live cells, was employed to monitor cell death in wild type (wt) ST14A-Htt and mut ST14A-Htt cell lines. Cell death is indicated by a decrease in fluorescence. […] 3 μl of each compound was transferred from daughter plates to triplicate assay plates for a final assay concentration of 4 μg/ml in 0.1% DMSO (10 μM for NINDS compounds). Cells were incubated at 33° C. for 3 h to enhance attachment and then shifted to 39° C. (with 5% CO2). After 3 days (d), cells were washed 10 times with phosphate buffered saline (PBS) leaving 20 μl residual PBS per well, and 20 μl of 2 μg/ml calcein AM (Molecular probes) in PBS was added per well. […] The fluorescence intensity in each well was normalized to the median of each plate. The median normalized fluorescence of each triplicate assay wells was determined. A well with more than 50% increase in intensity above the median signal intensity was considered a “hit.”
Assay Development: An assay was developed for detecting mutant htt-induced cell death in ST14A cells in a 384-well plate format. A calcein AM-based method was used to detect cell viability, and optimized the cell number and time course for this method. […] A cell number titration was performed to determine the cell density at which calcein fluorescence was not saturated and the coefficient of variation (CV) was low (FIG. 14A-B). A low CV is critical for a high-throughput assay as it decreases noise and enhances sensitivity. […] Next, the kinetics of the fluorescence signal were determined.
Next, the serum concentrations that induce cell death in these cells were determined. Cells were seeded in decreasing serum (IFS) concentrations (5 to 0%), and cell viability was assayed after 3 d using the calcein AM assay (FIG. 14E).
A Z′ value of greater than 0 is required for a usable assay, with a maximum value of 1.0 for an ideal assay. For the assay, calcein fluorescence was used on the day of seeding to represent 100% rescue. The difference in calcein fluorescence signal on the day of seeding and after different number of days under serum deprivation was determined and used to calculate the Z′ factor. […] About 47,000 compounds were assayed in a 384-well plate format in triplicate to enhance the reliability of the primary screen.

CCCCCC(O)C=CC1CCC(=O)C1CCCCCCC(=O)O (stereo not shown) [11-deoxyprostaglandin E1]
effect on doxorubicin's lethality in RKO-E6 cells (RKO-E6 cells; 24 h, in words): showed no activity

COc1ccccc1C1(CCN(Cc2ccccc2)C(=O)c2ccco2)CCOC(C)(C)C1 (stereo not shown) [Compound 164-10, 2-Furancarboxamide, N-(phenylmethyl)-N-[2-[tetrahydro-4-(2-methoxyphenyl)-2,2-dimethyl-2H-pyran-4-yl]ethyl]-(9CI)]
EC50 [1]: 200 nM | TC50 [1]: 1700 nM | Max % Toxicity [1]: 62.27%

COc1ccc(C2c3cc(OC)c(OC)cc3CCN2C(=O)c2ccco2)cc1OC (stereo not shown) [Compound 164-11, Isoquinoline, 1-(3,4-dimethoxyphenyl)-2-(2-furanylcarbonyl)-1,2,3,4-tetrahydro-6,7-dimethoxy-(9CI)]
Max % Rescue [1]: 7.95%

CC(=O)N(CCC1(c2ccc(C)cc2)CCOC(C(C)C)C1)Cc1ccco1 (stereo not shown) [Compound 164-12, N-(2-furylmethyl)-N-{2-[2-isopropyl-4-(4-methylphenyl)tetrahydro-2H-pyran-4-yl]ethyl}acetamide]
TC50 [1]: 8000 nM | Max % Toxicity [1]: 60.37%

CC(c1ccccc1)N(CCC(c1ccccc1)C1CCOC(C)(C)C1)C(=O)c1ccco1 (stereo not shown) [Compound 164-13, N-[3-(2,2-dimethyltetrahydro-2H-pyran-4-yl)-3-phenylpropyl]-N-(1-phenylethyl)-2-furamide]
TC50 [1]: 4000 nM | Max % Toxicity [1]: 55.74%

COc1ccc(CN(CCC(c2ccc(OC)cc2)C2CCOC(C)(C)C2)C(=O)c2ccco2)cc1 (stereo not shown) [Compound 164-14, N-[3-(2,2-dimethyltetrahydro-2H-pyran-4-yl)-3-(4-methoxyphenyl)propyl]-N-(4-methoxybenzyl)-2-furamide]
EC50 [1]: 200 nM | TC50 [1]: 2000 nM | Max % Toxicity [1]: 53.80%

CCC(=O)N(CCC1(c2ccc(F)cc2)CCOC(C)(C)C1)Cc1ccc(OC)c(OC)c1 (stereo not shown) [Compound 164-15, Propanamide, N-[(3,4-dimethoxyphenyl)methyl]-N-[2-[4-(4-fluorophenyl)tetraydro-2,2-dimethyl-2H-pyran-4-yl}ethyl]-(9CI)]
Max % Rescue [1]: 48.92%

CC1(C)CC(CCN(Cc2ccccc2)C(=O)c2ccco2)(c2ccccc2)CCO1 (stereo not shown) [Compound 164-16, 2-Furancarboxamide, N-(phenylmethyl)-N-[2-(tetrahydro-2,2-dimethyl-4-phenyl-2H-pyran-4-yl)ethyl]-(9CI)]
CC50 [1]: 8000 nM | EC50 [1]: 200 nM | Max % Toxicity [1]: 53.14%

O=C(c1ccco1)N1CCN(Cc2ccc3c(c2)OCO3)CC1 [Compound 164-17, 1-(1,3-benzodioxol-5-ylmethyl)-4-(2-furoyl)piperazine]
Max % Toxicity [1]: 31.31%

COc1cccc(CN2CCN(C(=O)c3ccco3)CC2)c1 [Compound 164-18, 1-(2-furoyl)-4-(3-methoxybenzyl)piperazine]
Max % Toxicity [1]: 12.00%

COc1ccc(CN2CCN(C(=O)c3ccco3)CC2)cc1OC [Compound 164-19, 1-(3,4-dimethoxybenzyl)-4-(2-furoyl)piperazine]
EC50 [1]: 18900 nM | Max % Toxicity [1]: 27.77%

COc1ccc(CN(CCC2(c3ccccc3)CCOC(C)(C)C2)C(=O)c2ccco2)cc1OC (stereo not shown) [Compound 164]
EC50 [1]: 10000 nM | Max % Toxicity [1]: 1.27%

CC[C@@]1(O)C(=O)OCc2c1cc1n(c2=O)Cc2cc3ccccc3nc2-1 [camptothecin, S-(+)-camptothecin]
inhibition at 0.5 µg/mL (RKO-E6 cells; Homo sapiens, RKOE6, 0.5 μg/ml alone, 24 h, read-out: growth inhibition by drug alone): 20% | p53, p21, MDM2 levels (p53): caused p53 to accumulate

CCCCCCCCCCCCCCCC[N+](C)(C)C.[Br-] [cetrimonium bromide, cetyltrimethylammonium bromide]
effect on doxorubicin's lethality in RKO-E6 cells (RKO-E6 cells; 24 h, in words): selectively increased doxorubicin's lethality | effect on camptothecin's lethality (RKO-E6 cells; co-treatment with camptothecin, in words): did not synergize with camptothecin

O[C@H]1[C@H]2c3cc4c(cc3CN3CC[C@H](C[C@@H]1O)[C@H]23)OCO4 [dihydrolycorine]
effect on doxorubicin's lethality in RKO-E6 cells (RKO-E6 cells; 24 h, in words): potentiated doxorubicin's lethality

CC[C@H]1CN2CCc3cc(OC)c(OC)cc3[C@@H]2C[C@@H]1C[C@H]1NCCc2cc(OC)c(OC)cc21 [emetine]
effect on doxorubicin's lethality in RKO-E6 cells (RKO-E6 cells; 24 h, in words): potentiated doxorubicin's lethality

NC(=O)NO [hydroxyurea]
effect on doxorubicin's lethality in RKO-E6 cells (RKO-E6 cells; 24 h, in words): only modest upregulation of doxorubicin's lethality

NNc1nnc(-c2ccccc2)c2ccccc12 [revertin-7]
EC50 [2]: 2 µg/mL (≈ 8.46 µM) | PC12 rescue: percent increase in viability in compound treated cells above DMSO treated [2]: 18% | maximal fold induction (N548 mutant cells): 2 | EC50 (N548 mutant cells): 1 µg/mL (≈ 4.23 µM)

CCCc1ccc(CC2=C(O)C(=O)c3ccccc3C2=O)cc1 [revertin-8]
EC50 [2]: 2 µg/mL (≈ 6.53 µM) | PC12 rescue: percent increase in viability in compound treated cells above DMSO treated [2]: 15% | maximal fold induction (N548 mutant cells): 3 | EC50 (N548 mutant cells): 2 µg/mL (≈ 6.53 µM)

CCCCCCCCC(=O)N(Cc1ccco1)C(C)c1nc2ccccc2c(=O)n1-c1cc(C)ccc1C (stereo not shown) [revertin-9]
EC50 [2]: 25 µg/mL (≈ 48.7 µM) | PC12 rescue: percent increase in viability in compound treated cells above DMSO treated [2]: 25% | maximal fold induction (N548 mutant cells): 2 | EC50 (N548 mutant cells): 1 µg/mL (≈ 1.95 µM)

CCCCc1ccc(C(=O)N(CCC(=O)N2CCC(Cc3ccccc3)CC2)Cc2ccco2)cc1 [revertin-11]
EC50 [2]: 30 µg/mL (≈ 61.6 µM) | PC12 rescue: percent increase in viability in compound treated cells above DMSO treated [2]: 27% | maximal fold induction (N548 mutant cells): 2.5 | EC50 (N548 mutant cells): 2 µg/mL (≈ 4.11 µM)

Propanamide, N-[(3,4-dimethoxyphenyl)methyl]-N-[2-(tetrahydro-2,2-dimethyl-4-phenyl-2H-pyran-4-yl)ethyl]-(9CI) [Compound 164-8]
Max % Rescue [1]: 51.48%
